How the values were obtained:
Male C57B16 mice [1] = assay: Tissue ICP-AES biodistribution of Mn; format: in vivo
Protocol: Tissue ICP-AES: Biodistribution of 5 was measured in tissues 15 and 90 min after injection of (1) 0.07 mmol/kg 5 plus 2.2 mmol/kg D-glucose, (2) 0.07 mmol/kg 5 plus saline, and (3) 0.035 mmol/kg MnCl plus 2.2 mmol/kg D-glucose into male C57B16 mice. The tissue weights were recorded and digested in aqua regia for 24 hours, the digested tissue was heated to 120° C. until evaporated and re-suspended in 0.5 M HCl. For ICP-AES, Mn, Fe, and Zn concentrations were obtained by comparing to a known metal standard.

[2] = Clearance route and integrity by LC-MS of urine and bile; format: in vivo
Male C57B16 mice [3] = assay: In vivo T1-weighted MRI of glucose-stimulated zinc secretion
Protocol: In Vivo MRI: Male C57B16 mice were imaged at 4.7 T and 9.4 T using Varian/Agilent scanners. Mice were anesthetized with 2-5% isofluorane/oxygen mixture and their body temperature was maintained at 37° C. using heated airflow. Two ge3d T1-weighted scans were obtained as a baseline (TE/TR=1.69/3.35 ms, Average=4, θ=20°). Mice then received 0.07 mmol/kg 5 i.v. plus 2.2 mmol/kg D-Glucose i.p. and sequential 3d T1-weighted scans were obtained for 90 minutes until clearance of the agent was evident. Images were analyzed using ImageJ, organs of interest were identified, and ROIs were measured and normalized to muscle ROIs within the same slice and time point. The change in MR signal intensity is reported as a percentage compared to pre-injection scans.

[4] = Relaxometry (T1 and T2 at 1.5 T); format: physicochemical; conditions: 37° C.
Protocol: Relaxometry: Varying concentrations of 5 (0-1 mM) were incubated with 2 mM ZnCl2, and 0.6 mM human serum albumin (HSA) at 37° C. T1 and T2 measurements were obtained at 1.5 T using a Bruker relaxometer. T1 was obtained by an inversion recovery sequence (IR, first pulse=10 ms, TR=10 s, TI=10-2500 ms), and T2 by a Carr-Prucell-Meiboom-Gill (CPMG, TE/TR=5/10000 ms, NE=700).

[5] = 0.035 mmol/kg i.v. plus 2.2 mmol/kg D-glucose i.p.

integrity during hepatobiliary clearance ([2]; LC-MS of bile) | longitudinal relaxivity r1 ([4]; "off" configuration (no Zn(II)/HSA)) | longitudinal relaxivity r1 ([4]; "on" configuration bound to Zn^2+ and HSA (2 mM ZnCl2, 0.6 mM HSA)) | Molecule | Mn accumulation in the heart (Male C57B16 mice [1]; [5]) | excretion route (tissue biodistribution of Mn) (Male C57B16 mice [1]; [5]) | integrity after renal filtration ([2]; LC-MS of urine) | Mn accumulation in the heart (Male C57B16 mice [1]; 0.07 mmol/kg i.v. plus 2.2 mmol/kg D-glucose i.p.) | Mn content in tissues (biodistribution) (Male C57B16 mice [1]; 15 minutes post-injection, 0.07 mmol/kg i.v. plus 2.2 mmol/kg D-glucose i.p.) | Mn content in tissues (biodistribution) (Male C57B16 mice [1]; 90 minutes post-injection, 0.07 mmol/kg i.v. plus 2.2 mmol/kg D-glucose i.p.) | MRI signal enhancement in organs (Male C57B16 mice [3]; 0.07 mmol/kg i.v. plus D-glucose 2.2 mmol/kg i.p., 4 minutes post injection, 9.4 T) | MRI signal enhancement in organs (Male C57B16 mice [3]; control, D-glucose not co-injected)
 |  |  | [Cl][Mn][Cl] [MnCl2, reference compound] | Accumulation in the heart | excreted renally and more overwhelmingly via the hepatobiliary system |  |  |  |  |  | 
degraded during hepatobiliary clearance | 3.5 mM⁻¹ s⁻¹ | 14.1 mM⁻¹ s⁻¹ | Mn—N-(6-methyl)-(2-(bis(pyridin-2-ylmethyl)amino)ethyl)-nicotinamido-N,N′ N′-trans-1,2-cyclohexylenediamine-triacetate [Compound 5] |  |  | excreted as an intact complex after renal filtration | no accumulation in the heart | found primarily in the kidneys, liver, pancreas, and prostate | greatly diminished in kidney and liver tissues but accumulated in the spleen and in the prostate | Enhancement in the pancreas, prostate, kidneys, and liver | marginal enhancement in the prostate and pancreas

Source: patent US11267832B2, “Mn(II)-based sensors to detect zinc in vivo with MRI” (The Board of Regents of the University of Texas System, priority 2018, dated 2022)
